Measured values from publication PMC6287766 (Molecular cancer therapeutics, 2017).

Test system: murine brainstem glioma (mBSG) cells
Experiment: Cell viability / proliferation IC50
Assay type: cell-based
Conditions: Mus musculus, read-out: IC50, cell viability

IC50 | SMILES
0.019 ± 0.02 µM | Cc1nc(Nc2ncc(C(=O)Nc3c(C)cccc3Cl)s2)cc(N2CCN(CCO)CC2)n1 [dasatinib]
0.71 ± 0.12 µM | COc1cccc2c1C(=O)c1c(O)c3c(c(O)c1C2=O)C[C@@](O)(C(=O)CO)C[C@@H]3O[C@H]1C[C@H](N)[C@H](O)[C@H](C)O1 [doxorubicin]
